The target in one experiment is T1, c-Myc/Max complex (Homo sapiens, UniProt P01106).
T1 construct: endogenous in cells; host or cells: A431
Put plainly: c-Myc co-immunoprecipitation with Max. The conditions noted are these: 200 nM, 1 hour, A431. The format is cell-based. The protocol:
A431 cells seeded at the desired densities in six-well dishes (Thermo Fisher Scientific) and incubated at 37° C., 10% CO2 for 16 hours. Cells were treated for 1 hour with mock, tPE or tPE-H1 200 nM before lysis in RIPA buffer for 20 minutes at 4° C. and centrifugation for 20 minutes at 15 000 g at 4° C. Soluble fractions were added with c-myc antibody (#32, Abcam) on orbital wheel for 4 hours at 4° C. Protein A Sepharose (GE Healthcare) was added and incubated overnight on orbital wheel at 4° C. After three washes, proteins were eluted in one volume of Laemmli blue 2X and heat-denaturated for 5 minutes at 95° C. Samples were run on SDS-PAGE before western blot. Membrane are blocked in milk and incubated with anti Max (#199489, Abcam) and anti c-Myc (#32072, Abcam).

For experiment [1], the system named is HeLa, A431, MG63, MDA-MD231, and HCT116. Put plainly: Sensitivity of other cell lines (data not shown). The experiment is classed as cell-based.
Experiment [2] has as its system Renilla upon CMV promoter. Briefly: CMV-Renilla control reporter in A431 cells. The conditions noted are these: 50 nM, 6 hours. The experiment is classed as cell-based. An excerpt:
(§1) All cell lines come from ATCC. Lentiviruses were generated according to the manufacturer's instructions (Invitrogen). WT A431 cells were transduced with Cignal Lenti Myc Reporter (Qiagen) expressing Luciferase upon E-Box promoter and CMV-Renilla Control CLS-RCL expressing Renilla upon CMV promoter. Single clone was selected after colony isolation and Luciferase/Renilla expression level tested. All cell lines (A431 and HepG2) were maintained in high-glucose Dulbecco's modified Eagle's medium supplemented with 10% foetal calf serum at 37° C. in a 10% CO2 incubator. All experiments were performed on cells passaged fewer than 10 times after thawing.
40,000 A431-Ebox-luc-CMV-Ren cells were seeded in a 96-well plate (Falcon) 48 hours. Luminescence is detected using the Promega Dual-Glo luciferase assay system, according to the manufacturer's protocol and read using Tecan Infinite M200 microplate reader using 100 ms integration time.

In the next experiment the test system is c-Myc regulated genes. Briefly: RT-PCRQ of c-Myc regulated transcripts. The format is cell-based, human. The conditions noted are these: A431, 100 nM overnight (16 hours). The procedure: 400000 A431 cells were seeded in each well in a 6 well plate (Falcon) 24 hours before incubation with 100 nM tPE-H1 for 16 hours at 37° C. Total RNA was isolated using the RNeasy Mini Kit (Qiagen, Ref. no 74106) as described by manufacturer's protocol.
10 μg total RNA was reversed transcribed using SuperScript III First-Strand Synthesis System for RT-PCR (Invitrogen, Cat. no. 18080051) as described by manufacturer's protocol.
The relative expression of mRNAs of c-Myc regulated genes identified in RT^2 Profiler™ PCR Array Human MYC Targets (Qiagen, Cat. no. PAHS-177Z) was determined by real-time quantitative RT-PCR. Briefly, a PCR component mix containing cDNA, RT^2 SYBR Green Mastermix (Qiagen, Cat. no. 330523) and RNase-free water is prepared. 25 μl of the PCR reaction was added to each well in one array plate and subjected to a qPCR program using the ABI 7500. PCR cycling conditions comprised of an initial denaturation step at 95° C. for 10 minutes followed by an amplification program for 40 cycles of 15 seconds at 95° C., and 60 seconds at 60° C. with fluorescence acquisition at the end of each extension. The relative expression of each gene between treated and untreated samples is calculated using the comparative ΔΔCT method, using the mock treated sample as calibrator and housekeeping gene HPRT as internal control.

The subject of experiment [3] is A431 cells. Put plainly: Cell fractionation, subcellular location. The conditions noted are these: for subcellular location after cell fractionation: 200 nM, 1 hour, A431; for time to reach the nucleus: after incubation. The experiment is classed as cell-based. The protocol: Cells were seeded at the desired densities in six-well dishes (Thermo Fisher Scientific) and incubated at 37° C., 10% CO2 for 16 hours. Cells were treated for 1 hour with mock (untreated cells) or tPE-H1 200 nM before fractionation with Cell Surface Protein Isolation Kit (#89881, Thermo Fisher Scientific) according to the manufacturer's protocol. In addition, cytosolic fraction is centrifuge at 15 000 g for 15 minutes to remove membrane contaminants. Samples are denaturated in Laemmli blue 2X and heat-denaturated for 5 minutes at 95° C. Samples are loaded on SDS-PAGE followed by western blot.
(§2) It is of note that the experiments outlined above were also performed using the tPE-Omomcy fusion protein, results of which are shown in FIG. 2B, and FIGS. 12 to 15. The concentration of the tPE-Omomyc fusion protein is as stated on the x-axis in FIGS. 12 and 14; 200 nM for FIG. 2B; and 10 nM for FIGS. 13 and 15.

A further experiment relates to c-Myc. Briefly: E-Box luciferase reporter, c-Myc transcriptional activity in A431 cells. The format is cell-based. The conditions noted are these: for EC50: A431 cells expressing luciferase upon E-Box promoter.
Text: as §1
40,000 A431-Ebox-luc-CMV-Ren cells were seeded in a 96-well plate (Falcon) 48 hours. Luminescence is detected using the Promega Dual-Glo luciferase assay system, according to the manufacturer's protocol and read using Tecan Infinite M200 microplate reader using 100 ms integration time. […]

The test system of experiment [4] is Hepatocarcinoma HepG2 cells. Put plainly: HepG2 cell proliferation (IncuCyte live imaging). The experiment is classed as cell-based. The conditions noted are these: for concentration above which no proliferation / absence of cell growth: HepG2, 2 weeks. The procedure:
(§3) Cells were seeded at 10 to 20% confluency. 24 hours later, the cells were incubated with different doses of tPE-H1 at 37° C., 10% CO2 for 14 days. Live imaging was performed using IncuCyte ZOOM® Live-Cell Analysis System. Bright field Images were taken every 6 hours. Images were analysed using IncuCyte ZOOM® Live-Cell Analysis software.
as §2

Experiment [5] deals with A431 cells. Briefly: A431 cell proliferation (IncuCyte live imaging). The experiment is classed as cell-based. The procedure:
as §3

For experiment [6], the system named is Hepatocarcinoma HepG2 cells. Put plainly: DRAQ7 cell mortality assay. The format is cell-based. The conditions noted are these: 24 hours. The protocol: 25000 HepG2 cells were seeded per well in a 96-well plate. After incubation at 37° C. for 24 hours, DRAQ7 dye was prepared with 100 nM tPE-H1 at 500 times dilution
Cell mortality was tracked by acquiring nine fields of brightfield and far-red images at 20× magnification every 4 hours using the Operetta machine (Perkin-Elmer) for 3 to 5 days. The machine kept the plate incubated at 37° C. with 8% CO2.
as §2

[7] abbreviates: 6 hours, read-out: EC50 on c-Myc transcriptional activity (c-Myc-dependent luciferase activity).
Setting [8] is: tPE-H1 50 nM, A431 E-Box luciferase.
[9] abbreviates: 6 hours, read-out: EC50 on c-Myc transcriptional activity, CPP fused to H1.
[10] abbreviates: tPE-Omomyc 10 nM, A431 E-Box luciferase.

“Also recorded” adds a separate entry of the source. Like-named read-outs stand apart in the source and are kept apart here.

T1 sequence (P01106 whole entry, one chain of several): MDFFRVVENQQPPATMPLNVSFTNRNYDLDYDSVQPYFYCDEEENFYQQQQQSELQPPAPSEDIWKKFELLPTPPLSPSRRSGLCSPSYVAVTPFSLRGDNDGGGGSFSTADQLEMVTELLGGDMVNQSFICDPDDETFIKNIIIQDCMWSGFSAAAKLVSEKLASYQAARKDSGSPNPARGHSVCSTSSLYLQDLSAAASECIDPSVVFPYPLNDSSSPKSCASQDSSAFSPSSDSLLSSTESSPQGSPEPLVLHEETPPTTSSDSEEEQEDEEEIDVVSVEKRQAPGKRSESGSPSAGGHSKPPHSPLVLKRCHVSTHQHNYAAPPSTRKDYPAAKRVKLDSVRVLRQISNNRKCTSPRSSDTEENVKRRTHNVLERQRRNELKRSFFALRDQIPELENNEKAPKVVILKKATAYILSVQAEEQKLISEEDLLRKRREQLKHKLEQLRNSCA

In the case of “tPE-H1: fusion protein: PE domains Ia and II genetically fused to mutated H1 peptide (S6A, F8A), SEQ ID NO: 14”, the “effect on c-Myc/Max interaction (co-IP of Max with c-Myc)” value in the experiment with c-Myc/Max complex is recorded as “disrupted the c-Myc/Max interaction”. Moreover, the “relative sensitivity of all cell lines tested, tPE-H1 versus tPE-Omomyc” value in experiment [1] (all the cell lines tested) is on record as “around 10 times”. In addition, in experiment [2], the “effect on Renilla luciferase (CMV promoter control)” value is “not affected”. In addition, the “mRNA amount of transcripts regulated by c-Myc” value with c-Myc regulated genes was “decrease of numerous upregulated genes under tPE-H1 treatment and an increase of numerous down regulated genes”. Besides, in the experiment on A431 cells [3], the “subcellular location after cell fractionation” value was “location in the nucleus” and the “time to reach the nucleus” value is recorded as “less than 1 hour”. The “more efficient than H1 fused to cell penetrating peptides (TAT, CAD, int)” value with c-Myc is “at least 1000 times”. Further, the “decrease in Myc reporter activity” value with c-Myc (50 nM) is more than 90%. Besides, in the experiment on c-Myc (50 nM, 6 hours, A431), the “effect on E-Box luciferase” value was “decrease of the luciferase”. Moreover, the EC50 (usually the midpoint of the concentration-response curve) in the experiment on c-Myc (setting [7]) amounted to 0.025 µM. In addition, in the experiment on c-Myc (setting [8]), the “time of peak activity / maximal inhibition of luciferase” value was 8 h and the “time over which maximal inhibition was stable” value is “more than 24 hours”. For the same substance, in experiment [4], the “concentration sufficient to block HepG2 cell proliferation and induce cell death/apoptosis” value stood at 100 nM; the “concentration above which no proliferation / absence of cell growth” value was “above 50 nM”. For the same substance, the cell proliferation entry in experiment [4] (HepG2, 10 nM and 25 nM, over 2 weeks) was “slower cell proliferation”. Also, the cell proliferation result with A431 cells [5] (A431, 50 nM and 100 nM, over 2 weeks) is recorded as “slower cell proliferation”. For the same substance, the “cell proliferation, dose response” value in the experiment with A431 cells [5] (A431, 50 to 400 nM) is on record as “dose dependent decrease in cell proliferation”. Further, the “concentration above which no proliferation / total absence of growth” value with A431 cells [5] (A431, over 2 weeks) is recorded as “above 200 nM”. Also, the “number of dead (DRAQ7 positive) cells” value in [6] (HepG2, 100 nM) is recorded as “cells death; also recorded: increase of the number of dead cells”.

“cell targeting peptide Cadherin fused to H1: LLIILLRRRIRKQAHAHSK NELKRAFAALRDQI [CAD-H1, reference compound]”: the EC50 with c-Myc (6 hours, listed as Cadherin, read-out: EC50 on c-Myc transcriptional activity, CPP fused to H1) was 75 µM; in the experiment with c-Myc (setting [9]) it was approximately 75 µM.

With “tPE-Omomyc: fusion protein: PE domains Ia and II genetically fused to Omomyc peptide, SEQ ID NO: 15”, in [1] (HeLa, A431, MG63, MDA-MD231, HCT116, data not shown), the “concentration to which cell lines were sensitive” value is given as “about 10 nM”. For the same substance, in the experiment on A431 cells [3], the “subcellular location after cell fractionation” value is “located in nuclear fraction; also recorded: in the nuclear fraction” and the “time to reach the nucleus” value is not above 1 h. Moreover, the EC50 with c-Myc (setting [7]) came out at 0.005 µM. Also, in the experiment with c-Myc (setting [10]), the “time of peak activity / maximal inhibition of luciferase” value came out at 16 h and the “time over which maximal inhibition is stable” value was “more than 24 hours”. In experiment [4], the “concentration sufficient to block HepG2 cell proliferation and induce cell death/apoptosis” value came to 10 nM; the “concentration above which no proliferation / absence of cell growth” value is “above 10 nM”. The cell proliferation result in experiment [4] (HepG2, 2.5 nM and 5 nM, 2 weeks) is listed as “slower cell proliferation”. Moreover, the “cell proliferation, different doses” value in experiment [4] (HepG2, 1 to 10 nM) is listed as “decrease in cell proliferation”. Besides, the “number of dead (DRAQ7 positive) cells” value in experiment [6] (HepG2, 10 nM) is listed as “significant increase; also recorded: increase of the number of dead cells”.

As for “cell targeting peptide Antenapedia fused to H1: RQIKIWFQNRRMKWKK NELKRAFAALRDQI [Int-H1, reference compound]”, the EC50 in the experiment with c-Myc (6 hours, listed as Antenapedia, read-out: EC50 on c-Myc transcriptional activity, CPP fused to H1) was 200 µM; in the experiment with c-Myc (6 hours, listed as int-H1, read-out: EC50 on c-Myc transcriptional activity, CPP fused to H1), approximately 200 µM.

Take “cell targeting peptide TAT fused to H1: GRKKRRQRRRPPQ NELKRAFAALRDQI [Tat-H1, reference compound]”: the EC50 in the experiment with c-Myc (6 hours, listed as TAT, read-out: EC50 on c-Myc transcriptional activity, CPP fused to H1) was 500 µM; in the experiment on c-Myc (setting [9]) it was approximately 500 µM.
